Reference: patent US5712274A, “Thienotriazolodiazepine compounds and their pharmaceutical use” (Yoshitomi Pharmaceutical Industries, Ltd., priority 1995, dated 1998)
Read-outs that look alike come from different tables or passages of the source.

Columns and labels:
TNBS-induced colitis = test: Effect on TNBS-induced colitis model in rats (intrarectal administration); type: in vivo, SD rats; conditions: 7 days
Method: Effect on trinitrobenzenesufonec acid (TNBS)-induced colitis model in rats.
Colitis was induced by intrarectal injection of TNBS solution (60 mg/ml in 50% EtOH, 500 μl/rat) to SD rats. Seven days later, rats were sacrificed, and large intestine (8 cm from anus) was cut off and weighed. Myeloperoxidase (MPO) activity in the intestinal tissue was measured as follows and taken as an indicator of leukocyte infiltration: the intestinal tissue was homogenized and a cycle of freeze-thawing of the tissue was repeated 3 times. The supernatant obtained by centrifugation was assayed for MPO activity with substrate for peroxidase (o-phenylenediamine). MPO activity in the supernatant was calculated with the commercial MPO as a standard. The increases in intestinal weight and MPO activity as described above were taken as indicators of colitis. Test compounds were suspended in 0.5% hydroxypropylmethylcellulose solution and administered intrarectally (o.2 ml/rat) for 5 days beginning on the day of TNBS injection.

VCAM-1 = test: Inhibitory effect on TNF-α-induced expression of VCAM-1 in HUVECs; type: cell-based; conditions: Homo sapiens, HUVEC, read-out: Inhibitory effect (IC50) on CAM-1 expression
Method: (§1) Inhibitory effect on expression of VCAM-1 and ELAM-1 in human umbilical vein-derived endothelial cells (HUVECs)
(§2) HUVECs were suspended in 199 medium containing 20% FCS, 20 μg/ml endothelial cell growth factor derived from bovine brain, and 100 μg/ml heparin, plated into 96-well microculture plates coated with collagen, and cultured at 37° C. in 5% CO2. When cells were grown to confluence, the cells received tumour necrosis factor (TNF)-α (20 U/ml for VCAM-1 expression, 100 U/ml for ELAM-1 expression) and cultured for 5 hr. After the cells were washed once with 199 medium, mouse anti-human VCAM-1 monoclonal antibody (2 μg/ml) or rat anti-human ELAM-1 monoclonal antibody (2 μg/ml) was added, and the cells were incubated for 1 hr at room temperature. After the cells were washed twice, peroxidase-conjugated anti-mouse immunoglobulin antibody or anti-rat immunoglobulin antibody was added, and the cells were incubated for 1 hr at room temperature. After the cells were washed 3 times, 2,2'-azino-bis(3-ethylbenzothiazolone-6-sulfonic acid) was added. After the plates were stood for 15 min at room temperature, absorbance at 405 nm with a reference wave length of 490 nm was measured with a 96-well microplate reader and was regarded as a indicator of VCAM-1 or ELAM-1 expression.

glomerulonephritis = test: Effect on glomerulonephritis in mice (anti-GBM antiserum); type: in vivo, female C57BL/6 mice; conditions: 12 days after anti-GBM antiserum, 0-5 points
Method: Effect on glomerulonephritis in mice
Rabbit immunoglobulin G solution (4 mg/ml in saline) was mixed with Freund's complete adjuvant at a ratio of 1:1 and the emulsion was prepared. The emulsion was injected into peritoneal cavity of female C57BL/6 mice (0.25 ml/mouse). After 5 days, rabbit anti-mouse glomerular basement membrane (GBM) antiserum obtained by the method of Nagai et al. (Japan. J. Pharmacol., 32, 1117, 1982) was administered i.v. (0.08 ml/mouse). […] Test compounds were suspended in 0.5% hydroxypropylmethylcellulose (HPMC) solution and administered p.o. (0.1 ml/10 g body weight) for 13 days beginning on the day of anti-GBM ant-serum injection.

CD11b = test: Effect on CD11b expression in human histiocytic leukemia cell line, U937 cells (PDB-induced); type: cell-based; conditions: U-937, 72 h, read-out: Inhibitory effect on CD11b expression (IC50)
Method: Effect on CD11b expression human histiocytic leukemia cell line, U937 cells
Effect on the expression of CD11b antigen, which is the α chain of an adhesion molecule, Mac-1 expressing on the surface of leukocytgic cells, was investigated. U937 cells were suspended in RPMI1640 medium containing 20% fetal calf serum (FCS), plated with phorbol 12,13-dibutyrate (PDB, 10 ng/ml) into 96-well filtration plates, and cultured for 3 days at 37° C. in 5% CO2. After the cells were washed once with RPMI1640 medium, rat anti-human CD11b antibody (2 μg/ml) was added to each well and the plates were incubated for 1 hr on ice. After the cell were washed twice, peroxidase-conjugated anti-rat immunoglobulin antibody (1 μg/ml) was added, and the cells were incubated for 1 hr on ice. After the cells were washed 3 times, substrate for peroxidase (o-phenylenediamine) was added. After the plates were stood for 15 min at room temperature, absorbance at 490 nm was measured with a 96-well microplate reader and was regarded as a indicator of CD11b antigen expression.

[1] = system: lipopolysaccharide (LPS)-induced adhesion of leukocytes; test: Effect on lipopolysaccharide (LPS)-induced adhesion of leukocytes; type: in vivo, BALB/c mice; conditions: 6 hr after LPS
Description: Effect on lipopolysaccharide (LPS)-induced adhesion of leukocytes
It has been reported that, by the administration of LPS to mice, an adhesion molecule, Mac-1-dependent leukocyte adhesion is induced, the leukocytes infiltrate into lung, liver and so on, and in result the number of peripheral blood leukocytes reduces (Morisaki et al., Clin. Immunol. Immunopathol., 61, 365-375, 1991). The effect on LPS-induced leukocyte adhesion was investigated by taking the reduction of peripheral blood leukocytes as an indicator of leukocyte adhesion.
LPS solution (50 ng/ml in saline, 0,5 ml/mouse) was injected into peritoneal cavity of BALB/c mice on day 0. Six hr after the LPS injection, the number of peripheral blood leukocytes was counted with an automatic blood cell counter. Test compounds were suspended in 0.5% hydroxypropylmethylcellulose solution and administered p.o. (0.1 ml/10 g body weight) on days -4 to 0.

[2] = system: oxazolone-induced ear edema; test: Effect on oxazolone-induced ear edema in mice; type: in vivo; conditions: sensitized mice, 24 hr after challenge
Method: Effect on oxazolone-induced ear edema in mice.
Mice were sensitized by applying 50 μl of oxazolone solution (50 mg/ml in acetone) to their shaved abdomen on day 0. On day 7, 5 μl of oxazolone solution was applied to each surface of the right ear. After 24 hr (day 8), the right and left ears were cut off with a puncher of 6 mm in diameter and weighed with an electronic reading balance. The difference in weight between the oxazolone-treated ear (right) and untreated ear (left) was taken to reflect the extent of ear edema. Test compounds were suspended in 0.5% hydroxypropylmethycellulose solution and administered p.o. (0.1 ml/10 g body weight) on days 0 to 4 (once a day) and day 7 (twice a day).

[3] = system: thioglycollate (TG) medium-induced infiltration of leukocytes; test: Effect on thioglycollate (TG) medium-induced infiltration of leukocytes; type: in vivo, BALB/c mice; conditions: TG medium 1 ml, day 4
Method: Effect on thioglycollate (TG) medium-induced infiltration of leukocytes
One ml of TG medium was injected into peritoneal cavity of BALB/c mice on day 0. On day 4, leukocytes infiltrating into the peritoneal cavity were collected with 3 ml of phosphatebuffered saline containing 0.02% EDTA and the density of leukocytes (cells/ml) was counted with an automatic blood cell counter. Total number of leukocytes (X) was calculated from the density of leukocytes (A) with the following formula.
Test compounds were suspended in 0.5% hydroxypropylmethyl-cellulose solution and administered p.o. (0.1 ml/10 g body weight) on days 0 to 3.

ELAM-1 = test: Inhibitory effect on TNF-α-induced expression of ELAM-1 in HUVECs; type: cell-based; conditions: Homo sapiens, HUVEC, read-out: Inhibitory effect (IC50) on ELAM-1 expression
Method: as §1, §2

[4] = system: antigen induced Eosinophils accumulation into lungs; test: Effect on antigen induced eosinophils accumulation into lungs in actively sensitized guinea pigs; type: in vivo, male Dunkin-Hartley guinea pigs; conditions: 30 mg/kg p.o., BALF 24 h after antigen exposure
Method: Effect on antigen induced Eosinophils accumulation into lungs in actively sensitized guinea pigs
Male Dunkin-Hartley guinea pigs (4W, Japan SLC, Inc.) were used throughout this study.
Sensitized animals were orally administered (p.o.) with compound or solvent (0.5% hydroxymethylcellulose) 30 min. before final sensitization, 30 min. before antigen exposure and 4.5 h after antigen exposure.
Egg albumin (EA, 10 μg) was added to AI(OH)3 (10 mg) in sterile physiological saline (0.5 ml) and mixed in a blender. This mixture was injected intraperitoneally into recipients. And after 14 days and 21 days, the procedure was repeated. Seven days after the final sensitization procedure, Mepyramine 10 mg/kg was injected intraperitoneally into the sensitized animals. After 30 min., the animals were exposed to aerosol of 1% EA in sterile physiological saline for 5 min.
24 h after antigen exposure, the animals were killed by exsanguination and tracheae were cannulated. And the lungs were lavaged three times with 10 ml of sterile physiological saline. Lavage fluid (BALF) was centrifuged (800 rpm for 10 min. at 4° C.) and the cell pellet was resuspended in 10 ml of sterile physilolgical saline and total cell numbers in BALF were counted in a hemocytometer (MEK 4200, Nihon-kohden, Ltd.). Differential cell counts were made from centrifuged preparations stained with May-Giemsa stain.

Compound | Intestinal weight (mean ± S.D.) (TNBS-induced colitis; 0.01 mg/site intrarectally) [mg] | MPO activity (mean ± S.D.) (TNBS-induced colitis; 0.01 mg/site intrarectally) | Intestinal weight (mean ± S.D.) (TNBS-induced colitis; 0.1 mg/site intrarectally) [mg] | MPO activity (mean ± S.D.) (TNBS-induced colitis; 0.1 mg/site intrarectally) [U/ml] | Intestinal weight (mean ± S.D.) (TNBS-induced colitis; 1 mg/site intrarectally) [mg] | MPO activity (mean ± S.D.) (TNBS-induced colitis; 1 mg/site intrarectally) [U/ml] | Score (mean ± S.D.) of protein level in urine (glomerulonephritis; 1 mg/kg/day p.o.) | Score (mean ± S.D.) of protein level in urine (glomerulonephritis; 3 mg/kg/day p.o.) | Increase in ear weight (mean ± S.D.) ([2]; 1 mg/kg p.o.) [mg] | Total number of leukocytes (mean ± S.D.) ([3]; 0.03 mg/kg/day p.o.) | Total number of leukocytes (mean ± S.D.) ([3]; 0.1 mg/kg/day p.o.) | Total number of leukocytes (mean ± S.D.) ([3]; 0.3 mg/kg/day p.o.) | other results
Cc1sc2c(c1C)C(c1ccc(Cl)cc1)=N[C@@H](CC(=O)Nc1ccc(O)cc1)c1nnc(C)n1-2 [Example 3, (S)-N-(4-hydroxyphenyl)-4-(4-chlorophenyl)-2,3,9-trimethyl-6H-thieno[3,2-f][1,2,4]triazolo[4,3-a][1,4]diazepine-6-acetamide] | 501.5 ± 78.3 | 0.716 ± 0.158 U/ml | 472.0 ± 43.4 | 0.654 ± 0.109 | 460.8 ± 52.3 | 0.676 ± 0.172 | – | – | – | – | – | – | –
Cc1sc2c(c1C)C(c1ccc(Cl)cc1)=N[C@@H](CC(=O)Nc1ccc(N)cc1)c1nnc(C)n1-2 [Example 4, (S)-N-(4-aminophenyl)-4-(4-chlorophenyl)-2,3,9-trimethyl-6H-thieno[3,2-f][1,2,4]triazolo[4,3-a][1,4]diazepine-6-acetamide] | 490.8 ± 89.9 | 0.703 ± 0,313 U/ml | 488.1 ± 24.0 | 0.511 ± 0.103 | 511.8 ± 98.5 | 0.488 ± 0.103 | – | – | – | – | – | – | –
Cc1sc2c(c1C)C(c1ccc(Cl)cc1)=N[C@@H](CC(=O)Nc1cccnc1)c1nnc(C)n1-2.Cl [Example 5, (S)-N-(3-pyridyl)-4-(4-chlorophenyl)-2,3,9-trimethyl-6H-thieno[3,2-f][1,2,4]triazolo[4,3-a][1,4]diazepine-6-acetamide hydrochloride] | – | – | – | – | – | – | 3.44 ± 0.88 | 2.22 ± 0.44 | 15.2 ± 0.8 | 1221 ± 239 × 10^4 | 990 ± 327 × 10^4 | 596 ± 165 × 10^4 | IC50 (VCAM-1; 5 h): 4.5 nM; IC50 (CD11b): 260 nM; Number of peripheral blood leukocytes (mean ± S.D.) ([1]; 1 mg/kg/day p.o.): 46 ± 8 × 100/μl; Number of peripheral blood leukocytes (mean ± S.D.) ([1]; 3 mg/kg/day p.o.): 69 ± 18 × 100/μl; Number of peripheral blood leukocytes (mean ± S.D.) ([1]; 10 mg/kg/day p.o.): 103 ± 16 × 100/μl; Increase in ear weight (mean ± S.D.) ([2]; 3 mg/kg p.o.): 14.0 ± 0.6 mg; Increase in ear weight (mean ± S.D.) ([2]; 10 mg/kg p.o.): 13.3 ± 0.5 mg; IC50 (ELAM-1; 5 h): 14 nM
Cc1sc2c(c1C)C(c1ccc(Cl)cc1)=N[C@@H](CC(=O)NCCO)c1nnc(C)n1-2 [Example 2, (S)-N-(2-hydroxyethyl)-4-(4-chlorophenyl)-2,3,9-trimethyl-6H-thieno[3,2-f][1,2,4]triazolo[4,3-a][1,4]diazepine-6-acetamide 1/4 hydrate] | – | – | – | – | – | – | 3.25 ± 0.16 | 2.44 ± 0.53 | 14.2 ± 0.4 | 1064 ± 359 × 10^4 | 594 ± 302 × 10^4 | 570 ± 203 × 10^4 | IC50 (VCAM-1; HUVECs, TNF-α 20 U/ml, 5 hr): 37 nM; IC50 (CD11b; U937 cells, PDB 10 ng/ml, 3 days): 150 nM; Increase in ear weight (mean ± S.D.) ([2]; 0.3 mg/kg p.o.): 14.3 ± 1.5 mg; Number of eosinophils [4]: 11.8 ± 3.8 × 10^6; IC50 (ELAM-1; HUVECs, TNF-α 100 U/ml, 5 hr): 79 nM
